From ChEMBL document CHEMBL1145360, “Highly potent growth hormone secretagogues” (Bioorg Med Chem Lett, 2007)

Columns and labels:
[1] = Stimulation of growth hormone in rat pituitary cell; assay type: functional, cell-based; settings: pituitary gland cell
Canis familiaris [2] = assay: Effect on growth hormone release in Beagle dog assessed as increase of GH level at 0.25 mg/kg, po relative to basal level; assay type: functional, Canis lupus familiaris
Canis familiaris [3] = assay: Effect on growth hormone release in Beagle dog assessed as increase of GH level at 0.50 mg/kg, po relative to basal level; assay type: functional, Canis lupus familiaris; settings: dose 0.5 mg/kg
Canis familiaris [4] = assay: Effect on growth hormone release in Beagle dog assessed as increase of GH level at 0.06 mg/kg, po relative to basal level; assay type: functional, Canis lupus familiaris
Canis familiaris [5] = assay: Effect on growth hormone release in Beagle dog assessed as increase of GH level at 0.01 mg/kg, iv relative to basal level; assay type: functional, Canis lupus familiaris

Row | SMILES | EC50 [1] [nM] | also measured
1 | CC(C)(N)C(=O)N[C@H](CCCc1ccccc1)C(=O)N1CCC2(CC1)C[C@@H](C(=O)NCCNS(C)(=O)=O)c1ccccc12 | 0.21 | –
2 | CC(C)(N)C(=O)N[C@H](CCCc1ccccc1)C(=O)N1CCC2(CC1)C[C@@H](C(N)=O)c1ccccc12.Cl | 0.09 | Fold change (Canis familiaris [2]): 4
3 | CNC(=O)[C@@H]1CC2(CCN(C(=O)[C@@H](CCCc3ccccc3)NC(=O)C(C)(C)N)CC2)c2ccccc21 | 0.4 | –
4 | CC(C)(N)C(=O)N[C@H](CCCc1ccccc1)C(=O)N1CCC2(CC1)C[C@@H](C(=O)NCCO)c1ccccc12.Cl | 0.51 | Fold change (Canis familiaris [3]): 4
5 | C=CCNC(=O)[C@@H]1CC2(CCN(C(=O)[C@@H](CCCc3ccccc3)NC(=O)C(C)(C)N)CC2)c2ccccc21 | 0.14 | –
6 | CC(C)(N)C(=O)N[C@H](CCCc1ccccc1)C(=O)N1CCC2(CC1)C[C@H](C(N)=O)c1ccccc12 | 0.35 | –
7 | CC(C)(N)C(=O)N[C@H](CCCc1ccccc1)C(=O)N1CCC2(CC1)C[C@H](C(=O)NCCCCO)c1ccccc12 | 0.73 | –
8 | CC(C)(N)C(=O)N[C@H](CCCc1ccccc1)C(=O)N1CCC2(CC1)C[C@@H](C(=O)NCCCCO)c1ccccc12 | 0.44 | –
9 | CC(C)(N)C(=O)N[C@H](CCCc1ccccc1)C(=O)N1CCC2(CC1)C[C@H](C(=O)NCCCO)c1ccccc12 | 0.85 | –
10 | CCNC(=O)[C@@H]1CC2(CCN(C(=O)[C@@H](CCCc3ccccc3)NC(=O)C(C)(C)N)CC2)c2ccccc21 | 0.9 | –
11 | CC(C)(N)C(=O)N[C@H](CCCc1ccccc1)C(=O)N1CCC2(CC1)C[C@@H](C(=O)Nc1ccccc1)c1ccccc12 | 1.2 | –
12 | CC(C)NC(=O)[C@@H]1CC2(CCN(C(=O)[C@@H](CCCc3ccccc3)NC(=O)C(C)(C)N)CC2)c2ccccc21 | 0.3 | –
13 | CC(C)(N)C(=O)N[C@H](CCCc1ccccc1)C(=O)N1CCC2(CC1)C[C@@H](C(=O)NCCCO)c1ccccc12 | 0.41 | –
14 | CC(C)(N)C(=O)N[C@H](CCCc1ccccc1)C(=O)N1CCC2(CC1)C[C@H](C(=O)NCCO)c1ccccc12 | 0.45 | –
15 | CCNC(=O)[C@H]1CC2(CCN(C(=O)[C@@H](CCCc3ccccc3)NC(=O)C(C)(C)N)CC2)c2ccccc21 | 2.1 | –
16 | CCCNC(=O)[C@@H]1CC2(CCN(C(=O)[C@@H](CCCc3ccccc3)NC(=O)C(C)(C)N)CC2)c2ccccc21.Cl | 0.15 | Fold change (Canis familiaris [4]): 4; Fold change (Canis familiaris [5]): 4
17 | CNC(=O)[C@H]1CC2(CCN(C(=O)[C@@H](CCCc3ccccc3)NC(=O)C(C)(C)N)CC2)c2ccccc21 | 3.8 | –
18 | CC(C)(N)C(=O)N[C@H](COCc1ccccc1)C(=O)N1CCC2(CC1)CN(S(C)(=O)=O)c1ccccc12 [IBUTAMOREN] | 1.5 | –
